Tested on: 966289-007-R4-J1-PDC complex spheroid viability
Test: Anticancer human tumor 966289-007-R4-J1-PDC patient-derived pancreatic adenocarcinoma cell line growth inhibition [GQUAD]
Conditions: for IC50: curve of first compound; for viability, T/C: stronger effect = lower value; active = viability on the fitted dose curve at most 10% of control; inactive = the rest
Outline: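 Viability of tumor cells grown as complex spheroids with endothelial and stromal cells, exposed to drug combinations. Top concentration at or near clinical Cmax (else 10 microM), diluted in half-log increments.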

[1] = second compound 0.0316 µM, first compound 0.0316 µM
[2] = second compound 0.0316 µM, first compound 0.1 µM
[3] = second compound 0.0316 µM, first compound 0.316 µM
[4] = second compound 0.0316 µM, first compound 1 µM
[5] = second compound 0.0316 µM, first compound 3.16 µM
[6] = second compound 0.0316 µM, first compound 10 µM
[7] = second compound 0.1 µM, first compound 0.0316 µM
[8] = second compound 0.1 µM, first compound 0.1 µM
[9] = second compound 0.1 µM, first compound 0.316 µM
[10] = second compound 0.1 µM, first compound 1 µM
[11] = second compound 0.1 µM, first compound 3.16 µM
[12] = second compound 0.1 µM, first compound 10 µM
[13] = second compound 0.316 µM, first compound 0.0316 µM
[14] = second compound 0.316 µM, first compound 0.1 µM
[15] = second compound 0.316 µM, first compound 0.316 µM
[16] = second compound 0.316 µM, first compound 1 µM
[17] = second compound 0.316 µM, first compound 3.16 µM
[18] = second compound 0.316 µM, first compound 10 µM
[19] = second compound 1 µM, first compound 0.0316 µM
[20] = second compound 1 µM, first compound 0.1 µM
[21] = second compound 1 µM, first compound 0.316 µM
[22] = second compound 1 µM, first compound 1 µM
[23] = second compound 1 µM, first compound 3.16 µM
[24] = second compound 1 µM, first compound 10 µM
[25] = second compound 3.16 µM, first compound 0.0316 µM
[26] = second compound 3.16 µM, first compound 0.1 µM
[27] = second compound 3.16 µM, first compound 0.316 µM
[28] = second compound 3.16 µM, first compound 1 µM
[29] = second compound 3.16 µM, first compound 3.16 µM
[30] = second compound 3.16 µM, first compound 10 µM
[31] = second compound 10 µM, first compound 0.0316 µM
[32] = second compound 10 µM, first compound 0.1 µM
[33] = second compound 10 µM, first compound 0.316 µM
[34] = second compound 10 µM, first compound 1 µM
[35] = second compound 10 µM, first compound 3.16 µM
[36] = second compound 10 µM, first compound 10 µM
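Also: spheroids exposed to the agents for seven days before readout.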
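For viability, T/C in this document: percent viability relative to DMSO vehicle control wells taken as 100%.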

C#Cc1c(F)ccc2cc(O)cc(-c3ncc4c(N5CC6CCC(C5)N6)nc(OCC56CCCN5CC(F)C6)nc4c3F)c12 (centres undefined) + Cc1cnc(CNC(=O)c2c(=O)c3ccc(N4CCCN(C)CC4)nc3n3c2sc2ccccc23)cn1
inactive: viability, T/C [1] 114% | viability, T/C [2] 114% | viability, T/C [3] 111% | viability, T/C [4] 116% | viability, T/C [5] 122% | viability, T/C [6] 114% | viability, T/C [7] 38.4% | viability, T/C [8] 31.4% | viability, T/C [9] 34.2% | viability, T/C [10] 31.9% | viability, T/C [11] 40.5% | viability, T/C [12] 33.9% | viability, T/C [13] 10.9% | viability, T/C [14] 11.8% | viability, T/C [15] 13.7% | viability, T/C [16] 12.7% | viability, T/C [17] 11% | viability, T/C [18] 7.05%
> 10000 nM: IC50 (second compound 0.0316 µM)
< 31.6 nM: IC50 (second compound 0.1 µM) | IC50 (second compound 0.316 µM) | IC50 (second compound 1 µM) | IC50 (second compound 3.16 µM) | IC50 (second compound 10 µM)
active: viability, T/C [19] 6% | viability, T/C [20] 4.8% | viability, T/C [21] 5.85% | viability, T/C [22] 6.1% | viability, T/C [23] 6.94% | viability, T/C [24] 2.87% | viability, T/C [25] 4.4% | viability, T/C [26] 5.02% | viability, T/C [27] 5.21% | viability, T/C [28] 4.53% | viability, T/C [29] 4.58% | viability, T/C [30] 0.22% | viability, T/C [31] 0.1% | viability, T/C [32] 0.14% | viability, T/C [33] 0.14% | viability, T/C [34] 0.28% | viability, T/C [35] 0.16% | viability, T/C [36] 0.11%

CC(=O)O[C@H]1C(=O)[C@@]2(C)[C@H]([C@H](OC(=O)c3ccccc3)[C@]3(O)C[C@H](OC(=O)[C@H](O)[C@@H](NC(=O)c4ccccc4)c4ccccc4)C(C)=C1C3(C)C)[C@]1(OC(C)=O)CO[C@@H]1C[C@@H]2O + Cc1cnc(CNC(=O)c2c(=O)c3ccc(N4CCCN(C)CC4)nc3n3c2sc2ccccc23)cn1
active: viability, T/C [1] 3.55% | viability, T/C [2] 2.41% | viability, T/C [3] 2.38% | viability, T/C [4] 2.61% | viability, T/C [5] 4.35% | viability, T/C [6] 6.47% | viability, T/C [7] 3.6% | viability, T/C [8] 2.87% | viability, T/C [9] 3.34% | viability, T/C [10] 3.44% | viability, T/C [11] 4.23% | viability, T/C [12] 5.96% | viability, T/C [13] 6.14% | viability, T/C [14] 5.32% | viability, T/C [15] 4.53% | viability, T/C [16] 4.82% | viability, T/C [17] 6.03% | viability, T/C [18] 6.11% | viability, T/C [19] 4.85% | viability, T/C [20] 3.94% | viability, T/C [21] 4.08% | viability, T/C [22] 3.75% | viability, T/C [23] 5.24% | viability, T/C [24] 5.33% | viability, T/C [25] 3.56% | viability, T/C [26] 2.87% | viability, T/C [27] 3.36% | viability, T/C [28] 2.75% | viability, T/C [29] 3.86% | viability, T/C [30] 3.56% | viability, T/C [31] 0.08% | viability, T/C [32] 0.11% | viability, T/C [33] 0.1% | viability, T/C [34] 0.09% | viability, T/C [35] 0.1% | viability, T/C [36] 0.11%
< 31.6 nM: IC50 (second compound 0.0316 µM) | IC50 (second compound 0.1 µM) | IC50 (second compound 0.316 µM) | IC50 (second compound 1 µM) | IC50 (second compound 3.16 µM) | IC50 (second compound 10 µM)

Reference: PubChem BioAssay AID2060488 (Molecular Pharmacology Branch, DTP, NCI, 2025)
